This series can be described thus: Thermogravimetric analysis (TGA), thermal stability / decomposition. It is filed as physicochemical. The note with it: as stated in the description, conditions not given. The protocol:
Samples of 8.0-18.2 mg were placed in platinum TGA sample pans (CS Ceramic) and heated from room temperature to 700° C. at 20° C./min in a furnace under either inert (nitrogen) or oxidizing (air) atmosphere. The experiments were performed in triplicates (n=3) or quintuplicates (n=5). The data were exported and the TGA curves were analysed using TA Universal Analysis Software (Universal Analysis 2000 Version 4.5A, TA Instruments-Waters LLC, New Castle, DE) to determine onset degradation temperatures (Ton,degradation) and weight percent losses of the materials used in this study over the temperature intervals of interest. The values were averaged and reported as mean±standard deviation.
FIG. 3A and FIG. 3B show the TGA profiles for PLA and PCL respectively. […] The mean Ton,degradation of PLA was 278.8±3.8° C., with the average weight percent loss of 98.6±0.3% (n=3) during the decomposition step. The mean Ton,degradation of PCL was 353.1±1.7° C., and the weight percent loss averaged 97.9±1.1% (n=3).
PLA-PCL MS with a 1:9 polymer ratio lost 12.3±0.8% weight (n=3) during the first decomposition step, and 84.7±0.6% weight (n=3) during the second step. The mean weight percent loss for the PLA-PCL MS with a 5:5 ratio of PLA to PCL was 56.5±0.9% (n=3) and 38.4±1.1% (n=3) during the first and second thermal degradation steps. […]

Take `COC1=CC=C2[C@H]3Cc4ccc(OC)c5c4[C@@]2(CCN3C)[C@H]1O5` [THB, Thebaine]: the thermal decomposition temperature result was “about 183 °C”.

These data come from US20230414514A1, “FORMULATION TO DETER ABUSE OF DRUGS BY SMOKING” (Purdue Research Foundation, priority 2022, published 2023).
